Reference: patent US9763957B2, “Autotaxin inhibitors” (Novartis AG, priority 2013, dated 2017)

Target: Recombinant human ATX (Homo sapiens (Human), UniProt Q13822)
Test: ATX inhibition assay (choline release, Amplex Red fluorescence)
Type: biochemical
Conditions: ATX 10 nM, LPC 18:1 10 μM, 37° C., 20 min pre-incubation; mean of n≧2
Procedure, shortened: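 Activity was taken from the slope of resorufin fluorescence (530/590 nm, read every 2 min for 40 min at 37 °C) produced by choline liberated from 10 μM oleoyl LPC.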

| Structure (SMILES) | IC50 |
| --- | --- |
| COCC1CCN(C(=O)/C=C/c2ccc(Cl)cc2Cn2nnc(C)n2)CC1 [Example 49.24, (E)-3-(4-Chloro-2-((5-methyl-2H-tetrazol-2-yl)methyl)phenyl)-1-(4-(methoxymethyl)piperidin-1-yl)prop-2-en-1-one] | 45 nM |
| Cc1nnn(Cc2cc(Cl)ccc2/C=C/C(=O)N2CCCN(c3ncccn3)CC2)n1 [Example 49.25, (E)-3-(4-Chloro-2-((5-methyl-2H-tetrazol-2-yl)methyl)phenyl)-1-(4-(pyrimidin-2-yl)-1,4-diazepan-1-yl)prop-2-en-1-one] | 10 nM |
| CC(=O)N1CCCN(C(=O)/C=C/c2ccc(Cl)cc2Cn2nnc(C)n2)CC1 [Example 49.26, (E)-1-(4-Acetyl-1,4-diazepan-1-yl)-3-(4-chloro-2-((5-methyl-2H-tetrazol-2-yl)methyl)phenyl)prop-2-en-1-one] | 160 nM |
| COC(=O)C1SCCN1C(=O)/C=C/c1ccc(Cl)cc1Cn1nnc(C)n1 (stereo not drawn) [Example 49.27, (E)-Methyl 3-(3-(4-chloro-2-((5-methyl-2H-tetrazol-2-yl)methyl)phenyl)acryloyl)thiazolidine-2-carboxylate] | 110 nM |
| Cc1nnn(Cc2cc(Cl)ccc2/C=C/C(=O)N2CCN(c3ncccc3C#N)CC2)n1 [Example 49.28, (E)-2-(4-(3-(4-Chloro-2-((5-methyl-2H-tetrazol-2-yl)methyl)phenyl)acryloyl)piperazin-1-yl)nicotinonitrile] | 10 nM |
| Cc1nnn(Cc2cc(Cl)ccc2/C=C/C(=O)N2CCN(c3ncccc3C(=O)N3CCCC3)CC2)n1 [Example 49.29, (E)-3-(4-Chloro-2-((5-methyl-2H-tetrazol-2-yl)methyl)phenyl)-1-(4-(3-(pyrrolidine-1-carbonyl)pyridin-2-yl)piperazin-1-yl)prop-2-en-1-one] | 78 nM |
| CCCNC(=O)COC1CCN(C(=O)/C=C/c2ccc(Cl)cc2Cn2nnc(C)n2)CC1 [Example 49.30, (E)-2-((1-(3-(4-Chloro-2-((5-methyl-2H-tetrazol-2-yl)methyl)phenyl)acryloyl)piperidin-4-yl)oxy)-N-propylacetamide] | 52 nM |
| Cc1nnn(Cc2cc(C(F)(F)F)ccc2/C=C/C(=O)N2CCC(C(=O)O)CC2)n1 [Example 51, (E)-1-(3-(2-((5-Methyl-2H-tetrazol-2-yl)methyl)-4-(trifluoromethyl)phenyl)acryloyl)piperidine-4-carboxylic acid] | 77 nM |
| Cc1nnn(Cc2cc(C(F)F)ccc2/C=C/C(=O)N2CCC(c3nnc(C)o3)CC2)n1 [Example 52, (E)-3-(4-(Difluoromethyl)-2-((5-methyl-2H-tetrazol-2-yl)methy)phenyl)-1-(4-(5-methyl-1,3,4-oxadiazol-2-yl)piperidin-1-yl)prop-2-en-1-one] | 17 nM |
| Cc1nnn(Cc2cc(C(F)(F)F)ccc2/C=C/C(=O)N2CCN(Cc3cnn(C)c3)CC2)n1 [Example 53, (E)-1-(4-((1-Methyl-1H-pyrazol-4-yl)methyl)piperazin-1-yl)-3-(2-((5-methyl-2H-tetrazol-2-yl)methyl)-4-(trifluoromethyl)phenyl)prop-2-en-1-one] | 2 nM |
| Cc1nnn(Cc2cc(OC(F)(F)F)ccc2/C=C/C(=O)N2CCC(c3nnc(C)o3)CC2)n1 [Example 54, (E)-1-(4-(5-Methyl-1,3,4-oxadiazol-2-yl)piperidin-1-yl)-3-(2-((5-methyl-2H-tetrazol-2-yl)methyl)-4-(trifluoromethoxy)phenyl)prop-2-en-1-one] | 8.9 nM |
| Cc1nnn(Cc2cc(C(F)F)ccc2/C=C/C(=O)N2CCC(c3noc(C)n3)CC2)n1 [Example 55, (E)-3-(4-(Difluoromethyl)-2-((5-methyl-2H-tetrazol-2-yl)methy)phenyl)-1-(4-(5-methyl-1,2,4-oxadiazol-3-yl)piperidin-1-yl)prop-2-en-1-one] | 8 nM |
| Cc1nnn(Cc2cc(OC(F)(F)F)ccc2/C=C/C(=O)N2CCC(Cc3nnc(C)o3)CC2)n1 [Example 56, (E)-1-(4-((5-Methyl-1,3,4-oxadiazol-2-yl)methyl)piperidin-1-yl)-3-(2-((5-methyl-2H-tetrazol-2-yl)methyl)-4-(trifluoromethoxy)phenyl)prop-2-en-1-one] | 12 nM |
| Cc1nnn(Cc2cc(C(F)(F)F)ccc2/C=C/C(=O)N2CCC(c3nnc(C)o3)CC2)n1 [Example 57, (E)-1-(4-(5-Methyl-1,3,4-oxadiazol-2-yl)piperidin-1-yl)-3-(2-((5-methyl-2H-tetrazol-2-yl)methyl)-4-(trifluoromethyl)phenyl)prop-2-en-1-one] | 8 nM |
| Cc1nnn(Cc2cc(OC(F)F)ccc2/C=C/C(=O)N2CCC(Cc3nnc(C)o3)CC2)n1 [Example 58, (E)-3-(4-(Difluoromethoxy)-2-((5-methyl-2H-tetrazol-2-yl)methyl)phenyl)-1-(4-((5-methyl-1,3,4-oxadiazol-2-yl)methyl)piperidin-1-yl)prop-2-en-1-one] | 53 nM |
| Cc1nnn(Cc2cc(C(F)F)ccc2/C=C/C(=O)N2CCC(Cc3nnc(C)o3)CC2)n1 [Example 59, (E)-3-(4-(Difluoromethyl)-2-((5-methyl-2H-tetrazol-2-yl)methyl)phenyl)-1-(4-((5-methyl-1,3,4-oxadiazol-2-yl)methyl)piperidin-1-yl)prop-2-en-1-one] | 21 nM |
| Cc1noc(CC2CCN(C(=O)/C=C/c3ccc(C(F)(F)F)cc3Cn3nnc(C)n3)CC2)n1 [Example 60, (E)-1-(4-((3-Methyl-1,2,4-oxadiazol-5-yl)methyl)piperidin-1-yl)-3-(2-((5-methyl-2H-tetrazol-2-yl)methyl)-4-(trifluoromethyl)phenyl)prop-2-en-1-one] | 8.8 nM |
| Cc1nnn(Cc2cc(Cl)ccc2/C=C/C(=O)N2CC3CCC2CN3Cc2coc(C)n2)n1 (stereo not drawn) [Example 61, (E)-3-(4-Chloro-2-((5-methyl-2H-tetrazol-2-yl)methyl)phenyl)-1-(5-((2-methyloxazol-4-yl)methyl)-2,5-diazabicyclo[2.2.2]octan-2-yl)prop-2-en-1-one] | 45 nM |

Second part, the molecule after the results:

| IC50 | Structure (SMILES) |
| --- | --- |
| 4.2 nM | Cc1nnn(Cc2cc(Cl)ccc2/C=C/C(=O)N2CCN(Cc3coc(C)n3)C[C@H]2C)n1 [Example 62, (R,E)-3-(4-Chloro-2-((5-methyl-2H-tetrazol-2-yl)methyl)phenyl)-1-(2-methyl-4-((2-methyloxazol-4-yl)methyl)piperazin-1-yl)prop-2-en-1-one] |
| 5.5 nM | Cc1csc(C(O)C2CCN(C(=O)/C=C/c3ccc(Cl)cc3Cn3nnc(C)n3)CC2)n1 (stereo not drawn) [Example 63, (E)-3-(4-Chloro-2-((5-methyl-2H-tetrazol-2-yl)methyl)phenyl)-1-(4-(hydroxy(4-methylthiazol-2-yl)methyl)piperidin-1-yl)prop-2-en-1-one] |
| 31 nM | Cc1nnn(Cc2cc(Cl)ccc2/C=C/C(=O)N2CCC(c3ccc(F)cc3)CC2)n1 [Example 64, (E)-3-(4-Chloro-2-((5-methyl-2H-tetrazol-2-yl)methyl)phenyl)-1-(4-(4-fluorophenyl)piperidin-1-yl)prop-2-en-1-one] |
| 5.5 nM | Cc1nnn(Cc2cc(C(F)(F)F)ccc2/C=C/C(=O)N2CCN(CC(=O)OC(C)(C)C)C[C@H]2C)n1 [Example 65, (R,E)-tert-Butyl 2-(3-methyl-4-(3-(2-((5-methyl-2H-tetrazol-2-yl)methyl)-4-(trifluoromethyl)phenyl)acryloyl)piperazin-1-yl)acetate] |
| 8.8 nM | COC(=O)C1CCN(C(=O)/C=C/c2ccc(C(F)(F)F)cc2Cn2nnc(C)n2)CC1 [Example 67, (E)-Methyl 1-(3-(2-((5-methyl-2H-tetrazol-2-yl)methyl)-4-(trifluoromethyl)phenyl)acryloyl)piperidine-4-carboxylate] |
| 4.5 nM | Cc1nnn(Cc2cc(C(F)(F)F)ccc2/C=C/C(=O)N2CCN(C(=O)OC(C)(C)C)CC2)n1 [Example 68, (E)-tert-Butyl-4-(3-(2-((5-methyl-2H-tetrazol-2-yl)methyl)-4-(trifluoromethyl)phenyl)acryloyl)piperazine-1-carboxylate] |
| 2 nM | Cc1nnn(Cc2cc(C(F)(F)F)ccc2/C=C/C(=O)N2CCN(Cc3coc(C)n3)C[C@H]2C)n1 [Example 69, (R,E)-3-(2-((5-Methyl-2H-tetrazol-2-yl)methyl)-4-(trifluoromethyl)phenyl)-1-(2-methyl-4-((2-methyloxazol-4-yl)methyl)piperazin-1-yl)prop-2-en-1-one] |
| 4.2 nM | Cc1nnn(Cc2cc(C(F)(F)F)ccc2/C=C/C(=O)N2CCN(Cc3cnn(C)c3)C[C@H]2C)n1 [Example 70, (R,E)-3-(2-((5-Methyl-2H-tetrazol-2-yl)methyl)-4-(trifluoromethyl)phenyl)-1-(2-methyl-4-((1-methyl-1H-pyrazol-4-yl)methyl)piperazin-1-yl)prop-2-en-1-one] |
| 6 nM | Cc1nnn(Cc2cc(C(F)(F)F)ccc2/C=C/C(=O)N2CCC(Cc3noc(C)n3)CC2)n1 [Example 71, (E)-1-(4-((5-Methyl-1,2,4-oxadiazol-3-yl)methyl)piperidin-1-yl)-3-(2-((5-methyl-2H-tetrazol-2-yl)methyl)-4-(trifluoromethyl)phenyl)prop-2-en-1-one] |
| 290 nM | Cc1ccc(/C=C/C(=O)N2CCC(Cc3nnc(C)o3)CC2)c(Cn2nnc(C)n2)c1 [Example 72, (E)-1-(4-((5-Methyl-1,3,4-oxadiazol-2-yl)methyl)piperidin-1-yl)-3-(4-methyl-2-((5-methyl-2H-tetrazol-2-yl)methyl)phenyl)prop-2-en-1-one] |
| 4.2 nM | Cc1nnn(Cc2cc(Cl)ccc2/C=C/C(=O)N2CCN(Cc3cnn(C)c3)C[C@H]2C)n1 [Example 73, (R,E)-3-(4-Chloro-2-((5-methyl-2H-tetrazol-2-yl)methyl)phenyl)-1-(2-methyl-4-((1-methyl-1 H-pyrazol-4-yl)methyl)piperazin-1-yl)prop-2-en-1-one] |
| 5.5 nM | Cc1nnn(Cc2cc(C(F)(F)F)ccc2/C=C/C(=O)N2CCN(Cc3coc(C)n3)CC2)n1 [Example 74, (E)-3-(2-((5-Methyl-2H-tetrazol-2-yl)methyl)-4-(trifluoromethyl)phenyl)-1-(4-((2-methyloxazol-4-yl)methyl)piperazin-1-yl)prop-2-en-1-one] |
